Columns and labels:
[1] = Cytotoxicity against human MOLT4 cells assessed as growth level at 10 uM after 48 hrs by SRB assay; type: functional, MOLT-4
[2] = tested on: SR; experiment: Cytotoxicity against human SR cells assessed as growth level at 10 uM after 48 hrs by SRB assay; type: functional
[3] = tested on: EKVX; experiment: Cytotoxicity against human EKVX cells assessed as growth level at 10 uM after 48 hrs by SRB assay; type: functional
[4] = Cytotoxicity against human HOP62 cells assessed as growth level at 10 uM after 48 hrs by SRB assay; type: functional, HOP-62
[5] = tested on: NCI-H23; experiment: Cytotoxicity against human NCI-H23 cells assessed as growth level at 10 uM after 48 hrs by SRB assay; type: functional
[6] = tested on: NCI-H322M; experiment: Cytotoxicity against human NCI-H322M cells assessed as growth level at 10 uM after 48 hrs by SRB assay; type: functional
[7] = Cytotoxicity against human HCC2998 cells assessed as growth level at 10 uM after 48 hrs by SRB assay; type: functional, HCC 2998
[8] = Cytotoxicity against human SF295 cells assessed as growth level at 10 uM after 48 hrs by SRB assay; type: functional, SF-295
[9] = Cytotoxicity against human SNB75 cells assessed as growth level at 10 uM after 48 hrs by SRB assay; type: functional, SNB-75
[10] = Cytotoxicity against human LOXIMVI cells assessed as growth level at 10 uM after 48 hrs by SRB assay; type: functional, LOX IMVI
[11] = tested on: Malme-3M; experiment: Cytotoxicity against human MALME-3M cells assessed as growth level at 10 uM after 48 hrs by SRB assay; type: functional
[12] = Cytotoxicity against human UACC62 cells assessed as growth level at 10 uM after 48 hrs by SRB assay; type: functional, UACC-62
[13] = Cytotoxicity against human IGROV1 cells assessed as growth level at 10 uM after 48 hrs by SRB assay; type: functional, IGROV-1
[14] = Cytotoxicity against human OVCAR3 cells assessed as growth level at 10 uM after 48 hrs by SRB assay; type: functional, OVCAR-3
[15] = Cytotoxicity against human OVCAR5 cells assessed as growth level at 10 uM after 48 hrs by SRB assay; type: functional, OVCAR-5
[16] = tested on: A498; experiment: Cytotoxicity against human A498 cells assessed as growth level at 10 uM after 48 hrs by SRB assay; type: functional
[17] = tested on: ACHN; experiment: Cytotoxicity against human ACHN cells assessed as growth level at 10 uM after 48 hrs by SRB assay; type: functional
[18] = Cytotoxicity against human Caki1 cells assessed as growth level at 10 uM after 48 hrs by SRB assay; type: functional, CAKI-1
[19] = tested on: SN12C; experiment: Cytotoxicity against human SN12C cells assessed as growth level at 10 uM after 48 hrs by SRB assay; type: functional
[20] = Cytotoxicity against human PC3 cells assessed as growth level at 10 uM after 48 hrs by SRB assay; type: functional, PC-3
[21] = tested on: SR; experiment: Cytotoxicity against human SR cells assessed as growth inhibition at 10 uM after 48 hrs by SRB assay; type: functional; conditions: read-out: GI
[22] = Cytotoxicity against human HOP62 cells assessed as growth inhibition at 10 uM after 48 hrs by SRB assay; type: functional; conditions: HOP-62, 48 h, read-out: GI
[23] = tested on: NCI-H226; experiment: Cytotoxicity against human NCI-H226 cells assessed as growth inhibition at 10 uM after 48 hrs by SRB assay; type: functional; conditions: NCI-H226, 48 h, read-out: GI
[24] = tested on: NCI-H460; experiment: Cytotoxicity against human NCI-H460 cells assessed as growth inhibition at 10 uM after 48 hrs by SRB assay; type: functional; conditions: NCI-H460, 48 h, read-out: GI
[25] = Cytotoxicity against human HCC2998 cells assessed as growth inhibition at 10 uM after 48 hrs by SRB assay; type: functional; conditions: HCC 2998, 48 h, read-out: GI
[26] = Cytotoxicity against human HCT116 cells assessed as growth inhibition at 10 uM after 48 hrs by SRB assay; type: functional; conditions: HCT-116, 48 h, read-out: GI
[27] = tested on: KM12; experiment: Cytotoxicity against human KM12 cells assessed as growth inhibition at 10 uM after 48 hrs by SRB assay; type: functional; conditions: KM12, 48 h, read-out: GI
[28] = Cytotoxicity against human SF295 cells assessed as growth inhibition at 10 uM after 48 hrs by SRB assay; type: functional; conditions: SF-295, 48 h, read-out: GI
[29] = Cytotoxicity against human SF539 cells assessed as growth inhibition at 10 uM after 48 hrs by SRB assay; type: functional; conditions: SF-539, 48 h, read-out: GI
[30] = tested on: Malme-3M; experiment: Cytotoxicity against human MALME-3M cells assessed as growth inhibition at 10 uM after 48 hrs by SRB assay; type: functional; conditions: read-out: GI
[31] = Cytotoxicity against human UACC62 cells assessed as growth inhibition at 10 uM after 48 hrs by SRB assay; type: functional; conditions: UACC-62, 48 h, read-out: GI
[32] = Cytotoxicity against human OVCAR3 cells assessed as growth inhibition at 10 uM after 48 hrs by SRB assay; type: functional; conditions: OVCAR-3, 48 h, read-out: GI
[33] = Cytotoxicity against human OVCAR4 cells assessed as growth inhibition at 10 uM after 48 hrs by SRB assay; type: functional; conditions: OVCAR-4, 48 h, read-out: GI
[34] = Cytotoxicity against human SKOV3 cells assessed as growth inhibition at 10 uM after 48 hrs by SRB assay; type: functional; conditions: SK-OV-3, 48 h, read-out: GI
[35] = tested on: 786-0; experiment: Cytotoxicity against human 786-0 cells assessed as growth inhibition at 10 uM after 48 hrs by SRB assay; type: functional; conditions: 786-0, 48 h, read-out: GI
[36] = tested on: A498; experiment: Cytotoxicity against human A498 cells assessed as growth inhibition at 10 uM after 48 hrs by SRB assay; type: functional; conditions: A498, 48 h, read-out: GI
[37] = tested on: ACHN; experiment: Cytotoxicity against human ACHN cells assessed as growth inhibition at 10 uM after 48 hrs by SRB assay; type: functional; conditions: read-out: GI
[38] = Cytotoxicity against human UO31 cells assessed as growth inhibition at 10 uM after 48 hrs by SRB assay; type: functional; conditions: UO-31, 48 h, read-out: GI
[39] = Cytotoxicity against human DU145 cells assessed as growth inhibition at 10 uM after 48 hrs by SRB assay; type: functional; conditions: DU-145, 48 h, read-out: GI
[40] = Cytotoxicity against human Hs578T cells assessed as growth inhibition at 10 uM after 48 hrs by SRB assay; type: functional; conditions: Hs-578T, read-out: GI
[41] = tested on: MDA-MB-468; experiment: Cytotoxicity against human MDA-MB-468 cells assessed as growth inhibition at 10 uM after 48 hrs by SRB assay; type: functional; conditions: MDA-MB-468, 48 h, read-out: GI
[42] = Cytotoxicity against human HL-60(TB) cells assessed as growth level at 10 uM after 48 hrs by SRB assay; type: functional

Q: With `C=C1CC[C@@H]2[C@](C)(COC(C)=O)[C@H](OC(C)=O)CC[C@@]2(C)[C@@H]1CC(NCc1ccccc1)C1=CCOC1=O` (mixture of isomers) as the molecule, how does the Activity [1] read?
A: Its Activity is -3.86%.

Q: And the Activity [2]?
A: Its Activity is 20.89%.

Q: What about the Activity [3] of the same molecule?
A: Its Activity is 53.91%.

Q: What about the Activity [4] of the same molecule?
A: Its Activity is 89.01%.

Q: What about the Activity [5] of the same molecule?
A: Its Activity is 57.36%.

Q: What about the Activity [6] of the same molecule?
A: The Activity was 77.01%.

Q: And the Activity [7]?
A: Its Activity is 93.69%.

Q: And the Activity [8]?
A: Its Activity is 63.88%.

Q: What about the Activity [9] of the same molecule?
A: The Activity was 76.94%.

Q: What about the Activity [10] of the same molecule?
A: Its Activity is 44.58%.

Q: And the Activity [11]?
A: The Activity was 77.12%.

Q: What about the Activity [12] of the same molecule?
A: Its Activity is 38.81%.

Q: And the Activity [13]?
A: Its Activity is 62.9%.

Q: And the Activity [14]?
A: The Activity was 31.82%.

Q: And the Activity [15]?
A: Its Activity is 101.59%.

Q: What about the Activity [16] of the same molecule?
A: Its Activity is 56.22%.

Q: And the Activity [17]?
A: Its Activity is 46.39%.

Q: And the Activity [18]?
A: Its Activity is 49.62%.

Q: What about the Activity [19] of the same molecule?
A: Its Activity is 58.19%.

Q: What about the Activity [20] of the same molecule?
A: Its Activity is 10.07%.

Q: What about the inhibition of growth at 10 µM [21] of the same molecule?
A: Its inhibition of growth at 10 µM is 79.1%.

Q: What about the inhibition of growth at 10 µM [22] of the same molecule?
A: Its inhibition of growth at 10 µM is 11%.

Q: And the inhibition of growth at 10 µM [23]?
A: Its inhibition of growth at 10 µM is 88.6%.

Q: And the inhibition of growth at 10 µM [24]?
A: The inhibition of growth at 10 µM was 51.6%.

Q: What about the inhibition of growth at 10 µM [25] of the same molecule?
A: Its inhibition of growth at 10 µM is 6.31%.

Q: And the inhibition of growth at 10 µM [26]?
A: The inhibition of growth at 10 µM was 57.7%.

Q: What about the inhibition of growth at 10 µM [27] of the same molecule?
A: The inhibition of growth at 10 µM was 60.9%.

Q: What about the inhibition of growth at 10 µM [28] of the same molecule?
A: Its inhibition of growth at 10 µM is 36.1%.

Q: What about the inhibition of growth at 10 µM [29] of the same molecule?
A: Its inhibition of growth at 10 µM is 20.5%.

Q: And the inhibition of growth at 10 µM [30]?
A: The inhibition of growth at 10 µM was 22.9%.

Q: And the inhibition of growth at 10 µM [31]?
A: Its inhibition of growth at 10 µM is 61.2%.

Q: And the inhibition of growth at 10 µM [32]?
A: The inhibition of growth at 10 µM was 68.2%.

Q: And the inhibition of growth at 10 µM [33]?
A: The inhibition of growth at 10 µM was 64.1%.

Q: What about the inhibition of growth at 10 µM [34] of the same molecule?
A: Its inhibition of growth at 10 µM is 20.8%.

Q: What about the inhibition of growth at 10 µM [35] of the same molecule?
A: Its inhibition of growth at 10 µM is 28.6%.

Q: What about the inhibition of growth at 10 µM [36] of the same molecule?
A: Its inhibition of growth at 10 µM is 43.8%.

Q: And the inhibition of growth at 10 µM [37]?
A: The inhibition of growth at 10 µM was 53.6%.

Q: And the inhibition of growth at 10 µM [38]?
A: The inhibition of growth at 10 µM was 70.9%.

Q: And the inhibition of growth at 10 µM [39]?
A: The inhibition of growth at 10 µM was 32.8%.

Q: What about the inhibition of growth at 10 µM [40] of the same molecule?
A: Its inhibition of growth at 10 µM is 13.6%.

Q: What about the inhibition of growth at 10 µM [41] of the same molecule?
A: Its inhibition of growth at 10 µM is 77.1%.

Q: And the Activity [42]?
A: The Activity was -9.93%.

Q: What does the source list for `C=C1CC[C@@H]2[C@](C)(COC(C)=O)[C@H](OC(C)=O)CC[C@@]2(C)[C@@H]1CC(Nc1ccc(S(=O)(=O)NC(C)=O)cc1)C1=CCOC1=O` (mixture of isomers)?
A: Activity [1]: 0.12%; Activity [2]: 2.08%; Activity [3]: 57.45%; Activity [4]: 81.97%; Activity [5]: 7.36%; Activity [6]: 35.29%; Activity [7]: -12.74%; Activity [8]: 58.44%; Activity [9]: 26.28%; Activity [10]: -85.84%; Activity [11]: -43.58%; Activity [12]: -12.47%; Activity [13]: -10.04%; Activity [14]: -87.71%; Activity [15]: -40.14%; Activity [16]: 73.42%; Activity [17]: -63.23%; Activity [18]: 30.25%; Activity [19]: 1.94%; Activity [20]: 0.69%; Activity [42]: -31.09%

Source: ChEMBL document CHEMBL3734705, “Synthesis and in vitro cytotoxicity of novel C-12 substituted-14-deoxy-andrographolide derivatives as potent anti-cancer agents” (2015)
